Article PMC5778758, “Functional characterization of oligopeptide transporter 1 of dairy cows” (Journal of Animal Science and Biotechnology, 2018)
Peptide text beside a SMILES is read from it.

Assays:
bPepT1 [1] = biological target: T1, bPepT1 (Bos taurus, UniProt A5D7E5); experiment: Inhibition of [3H]-Gly-Sar uptake in bPepT1-transfected CHO cells; assay type: cell-based, bovine (dairy cows); conditions: for IC50: read-out: IC50 (inhibition of [3H]-Gly-Sar uptake), Bovine
T1 construct: expressed in transfected cells; host or cells: CHO cells, transient transfection with pcDNA3.1-bPepT1
T1 sequence (A5D7E5 1-707): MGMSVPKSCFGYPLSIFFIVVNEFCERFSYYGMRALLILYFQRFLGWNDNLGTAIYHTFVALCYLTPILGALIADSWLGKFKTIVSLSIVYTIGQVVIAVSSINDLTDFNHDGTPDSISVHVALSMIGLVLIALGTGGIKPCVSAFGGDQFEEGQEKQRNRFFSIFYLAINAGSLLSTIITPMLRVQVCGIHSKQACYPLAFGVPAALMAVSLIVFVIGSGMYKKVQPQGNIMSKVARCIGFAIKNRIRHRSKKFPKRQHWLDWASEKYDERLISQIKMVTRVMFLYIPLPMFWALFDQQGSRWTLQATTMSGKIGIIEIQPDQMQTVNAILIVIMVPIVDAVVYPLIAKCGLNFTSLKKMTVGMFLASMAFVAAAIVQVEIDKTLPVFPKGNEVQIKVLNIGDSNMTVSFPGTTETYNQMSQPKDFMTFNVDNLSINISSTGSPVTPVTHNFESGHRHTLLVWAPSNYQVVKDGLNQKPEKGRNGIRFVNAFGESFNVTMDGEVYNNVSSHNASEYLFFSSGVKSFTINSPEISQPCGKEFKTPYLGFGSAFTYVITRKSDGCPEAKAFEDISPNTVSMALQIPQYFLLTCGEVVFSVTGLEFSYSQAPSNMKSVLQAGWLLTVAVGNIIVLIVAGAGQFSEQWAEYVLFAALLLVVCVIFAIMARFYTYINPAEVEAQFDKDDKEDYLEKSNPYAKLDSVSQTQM
Experimental: (§1) The CHO cells were cultured in F12 Ham’s medium that contained 10% FBS. All cell cultures were maintained at 37 °C and 5% CO2 in a humidified atmosphere. The culture medium was changed every other day. One day before transfection, the CHO cells were passaged and plated onto 12-well plates at a density of 5.0 × 10^4 cells/well. The bPepT1 cDNA [19] was cloned into the pcDNA3.1 expression vector (Invitrogen, Carlsbad, USA). When the CHO cells were cultured to approximately 70–90% confluence, the cells were transfected with the pcDNA3.1-bPepT1 vector or the pcDNA3.1 vector as a control. For each well, 1 μg of DNA was mixed with 2 μL of P3000™ and 1 μL of Lipofectamine 3000 (Invitrogen, Carlsbad, USA) in 50 μL of OPTI-MEM and incubated at room temperature for 5 min. Then, the DNA-lipid complex was added into each well and the cells were transfected for 24 h.
(§2) The transport activity of bPepT1 was determined using [^3H]-Gly-Sar (3.7 × 10^4 Bq/mL), a well-known hydrolysis-resistant peptide substrate, in transiently transfected CHO cells. The transfected cells were washed three times with uptake buffer at pH 6.0 which contained 140 mmol/L NaCl, 5.4 mmol/L KCl, 0.8 mmol/L MgSO4, 1.8 mmol/L CaCl2, 5 mmol/L glucose, and 25 mmol/L MES. Then, the cells were preincubated with the buffer for 30 min at 37 °C.
For the transport time study, the transfected CHO cells were incubated with 0.02 mmol/L of [^3H]-Gly-Sar (3.7 × 10^4 Bq/mL) for various times (1, 5, 10, 20, 40, and 60 min). For the pH dependency study, the pH of the uptake buffer was adjusted to various pH (5.0, 5.5, 6.0, 6.5, 7.0, and 7.5) with HEPES/Tris or MES/Tris. For the transport kinetic study, Gly-Sar was prepared at various concentrations (0.02–10 mmol/L) with 3.7 × 10^4 Bq/mL [^3H]-Gly-Sar. For the inhibition study, 15 small peptides that contained essential AA at five concentrations (0.001–10 mmol/L) were added into the uptake buffer with [^3H]-Gly-Sar, and they were incubated with the CHO cells for 5 min. Then, the concentration of unlabeled peptide that inhibited 50% of [^3H]-Gly-Sar uptake (IC50) was calculated using PRISM software (GraphPad, San Diego, CA, USA). Uptake was stopped by washing with ice-cold uptake buffer. The cells were lysed by adding 0.5 mL lysis buffer that contained 1% Triton X-100, followed by incubation at 37 °C for 60 min. The radioactivity of the cell lysate was measured using liquid scintillation counting (LSC, Wallac1414, Wallac Co., Turku, Finland). The total protein of the cell lysate was determined using a BCA Protein Assay Kit (Beyotime). The uptake was expressed as nmol/(mg protein • 5 min).

bPepT1 [2] = biological target: T1, bPepT1; experiment: pH dependency of Gly-Sar uptake in bPepT1-transfected CHO cells; assay type: cell-based, bovine (dairy cows); conditions: 0.02 mmol/L [3H]-Gly-Sar; pH 5.0–7.5; 5 min; n = 4; P < 0.05
Experimental: as §1, with “Then, the DNA-lipid complex was added into each well and the cells were transfected for 24 h.” left out
(§3) The transport activity of bPepT1 was determined using [^3H]-Gly-Sar (3.7 × 10^4 Bq/mL), a well-known hydrolysis-resistant peptide substrate, in transiently transfected CHO cells. […]
(§4) For the transport time study, the transfected CHO cells were incubated with 0.02 mmol/L of [^3H]-Gly-Sar (3.7 × 10^4 Bq/mL) for various times (1, 5, 10, 20, 40, and 60 min). […] The radioactivity of the cell lysate was measured using liquid scintillation counting (LSC, Wallac1414, Wallac Co., Turku, Finland). The total protein of the cell lysate was determined using a BCA Protein Assay Kit (Beyotime). The uptake was expressed as nmol/(mg protein • 5 min).

CHO cells = experiment: [3H]-Gly-Sar uptake in CHO cells transfected with pcDNA3.1 control vector; assay type: cell-based, Chinese hamster; conditions: 0.02 mmol/L, 1–60 min, n = 5
Experimental: as §1, with “Then, the DNA-lipid complex was added into each well and the cells were transfected for 24 h.” left out
as §3, §4

sheep PepT1 [3] = conditions: ref [14], read-out: Km for Gly-Sar, sheep; cited from earlier work
Excerpt: (§5) These features of bPepT1 met the requirement for transporting a large number of various small peptides. The str ...

chicken PepT1 [4] = conditions: ref [15], read-out: Km for Gly-Sar, chickens; cited from earlier work
Excerpt: as §5

bPepT1 [5] = biological target: T1, bPepT1; experiment: Gly-Sar transport kinetics in bPepT1-transfected CHO cells; assay type: cell-based, bovine (dairy cows); conditions: 5 min, n = 6
Experimental: as §1, §2
For the transport time study, the transfected CHO cells were incubated with 0.02 mmol/L of [^3H]-Gly-Sar (3.7 × 10^4 Bq/mL) for various times (1, 5, 10, 20, 40, and 60 min). For the pH dependency study, the pH of the uptake buffer was adjusted to various pH (5.0, 5.5, 6.0, 6.5, 7.0, and 7.5) with HEPES/Tris or MES/Tris. For the transport kinetic study, Gly-Sar was prepared at various concentrations (0.02–10 mmol/L) with 3.7 × 10^4 Bq/mL [^3H]-Gly-Sar. […] The radioactivity of the cell lysate was measured using liquid scintillation counting (LSC, Wallac1414, Wallac Co., Turku, Finland). The total protein of the cell lysate was determined using a BCA Protein Assay Kit (Beyotime). The uptake was expressed as nmol/(mg protein • 5 min).

bPepT1 [6] = biological target: T1, bPepT1; experiment: Time course of [3H]-Gly-Sar uptake in transfected CHO cells; assay type: cell-based, bovine (dairy cows); conditions: 0.02 mmol/L; 1–60 min; 24 h after transfection with bPepT1; n = 5
Experimental: as §1, with “Then, the DNA-lipid complex was added into each well and the cells were transfected for 24 h.” left out
as §3, §4

chicken PepT1 [7] = conditions: CHO cells transfected with chicken PepT1 cDNA; ref Chen et al. [15]; cited from earlier work
Excerpt: Table 1 Kinetic parameters of CHO cells transfected with bovine, sheep, pig, and chicken PepT1 cDNA | column: IC50, mmol/L / Chicken^e

sheep PepT1 [8] = conditions: CHO cells transfected with sheep PepT1 cDNA; ref Chen et al. [14]; cited from earlier work
Excerpt: Table 1 Kinetic parameters of CHO cells transfected with bovine, sheep, pig, and chicken PepT1 cDNA | column: IC50, mmol/L / Sheep^c

pig PepT1 = conditions: CHO cells transfected with pig PepT1 cDNA; CBD = cannot be determined; ref Klang et al. [17]; cited from earlier work
Excerpt: Table 1 Kinetic parameters of CHO cells transfected with bovine, sheep, pig, and chicken PepT1 cDNA | column: IC50, mmol/L / Pig^d

[9] = 0.02 mmol/L [3H]-Gly-Sar (3.7 × 10^4 Bq/mL), unlabeled peptide 0.001–10 mmol/L, pH 6.0, 5 min, liquid scintillation counting, n = 4 (Fig. 6), CBD = cannot be determined

Molecule | IC50 (bPepT1 [1]; [9]) | other results
CC(C)C[C@H](N)C(=O)NCC(=O)NCC(=O)O [Leu-Gly-Gly] (H-Leu-Gly-Gly-OH) | 2070 µM | –
N[C@@H](Cc1c[nH]c2ccccc12)C(=O)N[C@@H](Cc1ccccc1)C(=O)O [Trp-Phe] (H-Trp-Phe-OH) | 14 µM | –
CSCC[C@H](N)C(=O)N[C@@H](CC(C)C)C(=O)O [Met-Leu] (H-Met-Leu-OH) | 80 µM | –
NCCCC[C@H](NC(=O)CN)C(=O)O [Gly-Lys] (H-Gly-Lys-OH) | 78 µM | –
CSCC[C@H](N)C(=O)N[C@@H](CC(C)C)C(=O)N[C@@H](Cc1ccccc1)C(=O)O [Met-Leu-Phe] | 50 µM | –
CSCC[C@H](N)C(=O)N[C@@H](CCCCN)C(=O)O [Met-Lys] (H-Met-Lys-OH) | 20 µM | –
NCCCC[C@H](NC(=O)[C@@H](N)CCCCN)C(=O)O [Lys-Lys] | 9650 µM | –
CSCC[C@H](N)C(=O)N[C@@H](CCC(=O)O)C(=O)O [Met-Glu] (H-Met-Glu-OH) | 23 µM | –
CSCC[C@H](NC(=O)[C@@H](N)CCSC)C(=O)O [Met-Met] (H-Met-Met-OH) | 96 µM | –
glycyl-sarcosine [Gly-Sar] | – | pH dependency of [3H]-Gly-Sar uptake (bPepT1 [2]): pH-dependent and greater at pH 6.5 and 7.0 than at pH 5.5 and 6.0 which was greater than at pH 5.0 and 7.5; [3H]-Gly-Sar uptake in control-vector cells (CHO cells): only marginal, and it was much lower than in CHO cells that were transfected with the bPepT1 expression vector; Km (sheep PepT1 [3]): 1000 ± 100 µM; Km (chicken PepT1 [4]): 2600 ± 300 µM; Km (bPepT1 [5]; Gly-Sar 0.02–10 mmol/L with 3.7 × 10^4 Bq/mL [3H]-Gly-Sar, 37 °C preincubation, Michaelis–Menten, mean ± SEM): 940 ± 60 µM; maximum velocity (Vmax) (bPepT1 [5]; Gly-Sar 0.02–10 mmol/L with 3.7 × 10^4 Bq/mL [3H]-Gly-Sar, Michaelis–Menten, mean ± SEM): 20.80 ± 1.74 nmol/(mg protein • 5 min); Gly-Sar concentration at which transport was saturated (bPepT1 [5]; Gly-Sar 0.02–10 mmol/L): 5 mmol/L; Time course of [3H]-Gly-Sar uptake (bPepT1 [6]): increased rapidly and linearly in the first 10 min and reached a plateau subsequently
CSCC[C@H](NC(=O)CN)C(=O)O [Gly-Met] | 32 µM | –
CSCC[C@H](NC(=O)[C@@H](N)CCCCN)C(=O)O [Lys-Met] | 32 µM | –
CSCC[C@H](N)C(=O)NCC(=O)O [Met-Gly] (H-Met-Gly-OH) | 58 µM | –
NCCCC[C@H](NC(=O)[C@H](Cc1c[nH]c2ccccc12)NC(=O)[C@@H](N)CCCCN)C(=O)O [Lys-Trp-Lys] (H-Lys-Trp-Lys-OH; N-terminus and C-terminus assumed) | > 2070 µM | IC50 (chicken PepT1 [7]): 5900 µM; IC50 (sheep PepT1 [8]): 3730 µM; IC50 (pig PepT1): 2200 µM; IC50 (inhibition of [3H]-Gly-Sar uptake), Bovine (bPepT1 [1]; [9]): CBD; Favorability as substrate / affinity for bPepT1 (in words) (bPepT1 [1]; judged from IC50 values): less favorable substrates for bPepT1
NCCCC[C@H](N)C(=O)N[C@@H](Cc1ccccc1)C(=O)O [Lys-Phe] | 90 µM | –
CSCC[C@H](NC(=O)[C@H](CCSC)NC(=O)CNC(=O)[C@@H](N)CCSC)C(=O)O [Met-Gly-Met-Met] (H-MGMM-OH) | 6040 µM | –
NCC(=O)O [Gly] | – | Inhibition of [3H]-Gly-Sar uptake (in words) (bPepT1 [1]; 0.02 mmol/L [3H]-Gly-Sar, pH 6.0, 5 min): not inhibited
